One data set relates to ApoE-deficient mice. The data set is described as follows: Blood pressure by non-invasive tail-cuff system. The class given is in vivo. The conditions noted are these: for Systolic blood pressure vs control-fed mice: P<0.05. How it is done:
FIG. 3 is a graph showing that ABA decreases systolic blood pressure in ApoE (−/−) mice. ApoE −/− mice were fed high fat diets created with (solid line) or without (dashed line) 100 mg/kg diet racemic abscisic acid (ABA). Systolic blood pressure was assessed on days 0, 28, 56, and 72 of dietary treatment. Data were analyzed as a completely randomized design.
Five-week old ApoE −/− mice (n=40) were housed at the animal facilities at Virginia Polytechnic Institute and State University in a room maintained at 75° F., with a 12:12 h light-dark cycle starting from 6:00 AM. All experimental procedures were approved by the Institutional Animal Care and Use Committee of Virginia Polytechnic Institute and State University and met or exceeded requirements of the Public Health Service/National Institutes of Health and the Animal Welfare Act. Mice were fed a high saturated fat (AIN-93G-based) diet containing 19.6% fat and 0.2% total cholesterol and obtaining 40.1% of Kcal from fat (4.4 Kcal/g) with or without 100 mg/kg of a racemic ABA mixture (Guri et al., J. Nutr. Biochem. 19:216-28, 2008). Systolic blood pressure was assessed on days 0, 28, 56, and 72. On day 84, fasted mice (12 h) were sacrificed by carbon dioxide asphyxiation and blood was withdrawn through cardiac puncture. Glucose concentrations of whole blood were assessed with an Accu-Chek® Glucometer (Roche, Indianapolis, Ind.) and plasma insulin was measured through insulin ELISA (Millipore, Billerica, Mass.). Aortas were collected for analysis of immune cell infiltration, histological evaluation of atherosclerotic lesions, and gene expression analyses.
Systolic blood pressure was measured with a computerized non-invasive tail-cuff system (CODA 2 mouse rat blood pressure system; Kent Scientific Corporation, Torrington, Conn.). Conscious animals were kept in a restrainer, with a standard acclimatization time of 10 min and gentle heating of the tail before every recording session. Fifteen recordings, which were preceded by five acclimitization recordings, were performed on each animal during each timepoint.

Data set [1] relates to vascular cell adhesion molecule 1 (VCAM-1). The data set is described as follows: Aortic gene expression by real-time RT-PCR: VCAM-1. The class given is in vivo, mice. The settings on record: P=0.07. How it is done:
(§1) FIG. 6 are graphs showing that ABA decreases immune cell infiltration in aortas of ApoE−/− mice and reduces pro-inflammatory gene expression. ApoE −/− mice were fed high fat diets created with or without 100 mg/kg diet racemic abscisic acid (ABA). (A) Infiltration of F4/80^+CD11b^+ macrophages and CD4^+ T-cells into the aorta were assessed with flow cytometry. Gene expression in the aorta of pro-inflammatory markers (B) vascular cell adhesion molecule 1 (VCAM-1), (C) monocyte chemoattractant protein 1 (MCP-1), (D) E-selectin, (F) peroxisome proliferator-activated receptor γ (PPAR γ), and (G) CD36 were measured as a ratio to the housekeeping gene β-actin. (H) MCP-1 protein concentrations (pg/mL) were measured by ELISA. Data were analyzed as a completely randomized design.
Total RNA was isolated from aortas using the RNA isolation Minikit (Qiagen) according to the manufacturer's instructions. […] Each gene amplicon was purified with the MiniElute PCR Purification Kit (Qiagen) and quantitated on an agarose gel by using a DNA mass ladder (Promega). […]
Complementary DNA (cDNA) concentrations for genes of interest were examined by real-time quantitative PCR using an iCycler IQ System and the iQ SYBR green supermix (Bio-Rad). […] Results are presented as a starting quantity of target cDNA (picograms) per microgram of total RNA. […]

The subject of a further data set is pancreatic β-cells. The conditions noted are these: Bruzzone et al., 2008; cited from earlier work.
For data set [2], the system named is F4/80+CD11b+ macrophages and CD4+ T-cells. Kind of data set: Flow cytometry of immune cell infiltration into the aortic root. The class given is in vivo, mice. The conditions noted are these: day 84, flow cytometry. The method, then: as §1
After euthanization, mouse hearts were perfused with PBS for 2 minutes. Aortas were then extracted. Aortic roots were cut into small […] pieces, and placed in 1× Hanks Balanced Sodium Salt Solution (HBSS) containing 0.2% type II collagenase (Worthington Biochemicals). After digestion at 37° C. for 1 hour, samples were sent through a […] nylon filter (BD), washed with HBSS, and centrifuged at 1200 rpm for 10 min. Cell suspensions were then resuspended in FACS buffer and enumerated by using a Z1 Single Particle Counter (Beckman Coulter). […]

[3] abbreviates: ABA 100 mg/kg diet, data not shown.

In the case of `CC1=CC(=O)CC(C)(C)C1(O)/C=C/C(C)=C\C(=O)O` (racemic) [ABA, abscisic acid], in the data set on ApoE-deficient mice (setting [3]), the “Diastolic blood pressure vs control-fed mice” value is reported as “no significant affect” and the “Mean heart rate vs control-fed mice” value is “no significant affect”. In addition, in the data set on ApoE-deficient mice (day 56, ABA 100 mg/kg diet), the “Systolic blood pressure vs control-fed mice” value is recorded as “significantly reduced”. In the data set with ApoE-deficient mice (day 72, ABA 100 mg/kg diet), the “Systolic blood pressure vs control-fed mice” value is “significantly reduced”. For the same compound, the “VCAM-1 mRNA expression in the aortic roots vs control” value in data set [1] is “reduced, though not to statistical significance”. In addition, in the data set with pancreatic β-cells, the “Intracellular levels of cAMP” value is listed as “increases intracellular levels of cAMP”. Also, in data set [2], the “Recruitment of CD4+ T-cells in the aortic root vs control” value is reported as “significantly reduces recruitment” and the “Recruitment of F4/80+CD11b+ macrophages in the aortic root vs control” value is listed as “significantly reduces recruitment”.

Values taken from US20110054033A1, “METHODS OF USING ABSCISIC ACID FOR AMELIORATING HYPERTENSION AND VASCULAR INFLAMMATION” (Virginia Tech Intellectual Properties, Inc., priority 2009, published 2011).
